We go through three molecules from patent US9247759B2, “Identification of human T2R receptors that respond to bitter compounds that elicit the bitter taste in compositions, and the use thereof in assays to identify compounds that inhibit (block) bitter taste in compositions and use thereof” (SENOMYX, INC., priority 2007, dated 2016).

Molecules are shown by their SMILES.

One assay addresses hT2R3 (Homo sapiens (Human), UniProt Q9NYW6). Put plainly: hT2R panel inhibition, transient HEK293 G16g44, agonist Chloroquine pH6.5 50 μM. Format: cell-based. Particulars: HEK293, compound at 25 μM; receptor activated to EC80 with the corresponding agonist; read-out: screening result against bitter receptor 3. A digest of the protocol:
(§1)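 One receptor per transfection, EC80 agonist, activity drop with compound = inhibition.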

The next assay deals with hT2R44. Put plainly: hT2R panel inhibition, transient HEK293 G16g44, agonist Denatonium 0.5 μM. Format: cell-based, human. Particulars: compound at 25 μM; receptor activated to EC80 with the corresponding agonist. A digest of the protocol:
as §1

The subject of the next assay is hT2R63. Put plainly: hT2R panel inhibition, transient HEK293 G16g44, agonist Caffeine 1 mM or Andrographolide 100 μM. Format: cell-based, human. Particulars: compound at 25 μM; receptor activated to EC80 with the corresponding agonist. Summed up: as §1
The target in a further assay is hT2R5 (Homo sapiens (Human), UniProt Q9NYW4). Put plainly: hT2R panel inhibition, transient HEK293 G16g44, agonist Picoline 10 mM. Format: cell-based. Particulars: HEK293, compound at 25 μM; receptor activated to EC80 with the corresponding agonist; read-out: screening result against bitter receptor 5. A digest of the protocol:
as §1

In a further assay the target is hT2R8 (Homo sapiens (Human), UniProt Q9NYW2). Put plainly: hT2R panel inhibition, transient HEK293 G16g44, agonist Andrographolide 0.5 mM. In kind it is cell-based. Particulars: HEK293, compound at 25 μM; receptor activated to EC80 with the corresponding agonist; read-out: screening result against bitter receptor 8. The method, then: Specifically, in order to evaluate the inhibitory selectivity of the Compound C compound, this compound was tested against 22 human T2Rs which were deorphaned by Senomyx. These receptors and the bitter ligands that activate these human T2Rs are reported in earlier patent applications which are incorporated by reference herein. These 22 human T2Rs are hT2R1, 3, 4, 5, 7, 8, 9, 10, 13, 14, 16, 44, 51, 54, 55, 61, 63, 64, 65, 67, 71 and 75. The amino acid and nucleic acid sequences of all of these T2Rs may be found in these earlier patent applications. These human T2Rs were each individually transiently transfected into HEK293 cells that stably express the promiscuous G protein G16g44 and functional assays were effected using these receptors as disclosed in these same patent applications. […] The ligands were used at EC80 concentration levels. The list of bitter ligands utilized and the tested ligand concentrations are contained in Table 5 of this example.

For a further assay, the system named is hT2R54. As to the kind of experiment: hT2R panel inhibition, transient HEK293 G16g44, agonist Ranitidine 5 mM. Format: cell-based, human. The following applies: compound at 25 μM; receptor activated to EC80 with the corresponding agonist. A digest of the protocol: as §1
The next assay concerns the target hT2R9 (Homo sapiens (Human), UniProt Q9NYW1). As to the kind of experiment: hT2R panel inhibition, transient HEK293 G16g44, agonist Ofloxacin 1 mM. Format: cell-based. Particulars: HEK293, compound at 25 μM; receptor activated to EC80 with the corresponding agonist; read-out: screening result against bitter receptor 9. Summed up:
as §1

For a further assay, the target named is hT2R64 (Homo sapiens (Human), UniProt P59538). As to the kind of experiment: hT2R panel inhibition, transient HEK293 G16g44, agonist Aristolochic Acid 1 μM. Particulars: HEK293, compound at 25 μM; receptor activated to EC80 with the corresponding agonist; read-out: screening result against bitter receptor 64. In kind it is cell-based. A digest of the protocol:
as §1

The next assay has as its system hT2R67. As to the kind of experiment: hT2R panel inhibition, transient HEK293 G16g44, agonist Andrographolide 5 μM. In kind it is cell-based, human. The following applies: compound at 25 μM; receptor activated to EC80 with the corresponding agonist. A digest of the protocol: as §1
Another assay has as its system hT2R65. Put plainly: hT2R panel inhibition, transient HEK293 G16g44, agonist Oleuropein 1 mM. Format: cell-based, human. The following applies: compound at 25 μM; receptor activated to EC80 with the corresponding agonist. A digest of the protocol:
as §1

The target of another assay is hT2R7 (Homo sapiens (Human), UniProt Q9NYW3). As to the kind of experiment: hT2R panel inhibition, transient HEK293 G16g44, agonist Chloroquine pH6.5 10 mM. In kind it is cell-based. The following applies: HEK293, compound at 25 μM; receptor activated to EC80 with the corresponding agonist; read-out: screening result against bitter receptor 7. A digest of the protocol: as §1

Another assay addresses hT2R71 (Homo sapiens (Human), UniProt P59536). As to the kind of experiment: hT2R panel inhibition, transient HEK293 G16g44, agonist Picric Acid 10 μM. Format: cell-based. Particulars: HEK293, compound at 25 μM; receptor activated to EC80 with the corresponding agonist; read-out: screening result against bitter receptor 71. Summed up:
as §1

A further assay addresses hT2R51 (Homo sapiens (Human), UniProt P59533). Put plainly: hT2R panel inhibition, transient HEK293 G16g44, agonist Prop 2.5 μM. Format: cell-based. Particulars: HEK293, compound at 25 μM; receptor activated to EC80 with the corresponding agonist; read-out: screening result against bitter receptor 51. A digest of the protocol: as §1
The target of another assay is hT2R14 (Homo sapiens (Human), UniProt Q9NYV8). As to the kind of experiment: hT2R panel inhibition, transient HEK293 G16g44, agonist Aristolochic Acid 2 μM. Format: cell-based. Particulars: HEK293, compound at 25 μM; receptor activated to EC80 with the corresponding agonist; read-out: screening result against bitter receptor 14. A digest of the protocol:
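Agonist challenge was at EC80, with 0.5 mM andrographolide on hT2R8 and 2 μM aristolochic acid on hT2R14. Inhibition was measured in functional assays in HEK293 cells that stably carry the promiscuous G protein G16g44 and were transiently transfected with the individual receptor.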

Another assay concerns hT2R55. Put plainly: hT2R panel inhibition, transient HEK293 G16g44, agonist Cinchonine 150 μM. Particulars: compound at 25 μM; receptor activated to EC80 with the corresponding agonist. Format: cell-based, human. Summed up: as §1
The target in a further assay is hT2R16 (Homo sapiens (Human), UniProt Q9NYV7). As to the kind of experiment: hT2R panel inhibition, transient HEK293 G16g44, agonist Salicin 1 mM. In kind it is cell-based. The following applies: HEK293, compound at 25 μM; receptor activated to EC80 with the corresponding agonist; read-out: screening result against bitter receptor 16. Summed up:
as §1

Another assay concerns the target hT2R75 (Homo sapiens (Human), UniProt P59540). As to the kind of experiment: hT2R panel inhibition, transient HEK293 G16g44, agonist Strychnine 1 μM. Particulars: HEK293, read-out: screening result against bitter receptor 75, compound at 25 μM; receptor activated to EC80 with the corresponding agonist. Format: cell-based.
For the next assay, the target named is hT2R10 (Homo sapiens (Human), UniProt Q9NYW0). Put plainly: hT2R panel inhibition, transient HEK293 G16g44, agonist Strychnine 50 μM. In kind it is cell-based. Particulars: HEK293, read-out: screening result against bitter receptor 10, compound at 25 μM; receptor activated to EC80 with the corresponding agonist.
A further assay concerns the target hT2R61 (Homo sapiens (Human), UniProt P59537). Put plainly: hT2R panel inhibition, transient HEK293 G16g44, agonist Aristolochic Acid 25 nM. Format: cell-based. Particulars: HEK293, compound at 25 μM; receptor activated to EC80 with the corresponding agonist; read-out: screening result against bitter receptor 61. Summed up: as §1

Chain of hT2R3 (Q9NYW6 whole entry): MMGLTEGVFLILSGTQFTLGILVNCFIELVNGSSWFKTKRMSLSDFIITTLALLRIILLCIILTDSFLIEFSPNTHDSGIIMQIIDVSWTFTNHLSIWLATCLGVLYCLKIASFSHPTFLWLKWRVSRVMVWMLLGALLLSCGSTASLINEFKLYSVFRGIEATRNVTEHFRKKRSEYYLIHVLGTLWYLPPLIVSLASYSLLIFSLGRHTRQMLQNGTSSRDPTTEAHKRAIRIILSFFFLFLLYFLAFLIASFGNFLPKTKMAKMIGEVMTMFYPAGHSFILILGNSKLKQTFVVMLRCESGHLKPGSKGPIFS
Chain of hT2R8 (Q9NYW2 whole entry): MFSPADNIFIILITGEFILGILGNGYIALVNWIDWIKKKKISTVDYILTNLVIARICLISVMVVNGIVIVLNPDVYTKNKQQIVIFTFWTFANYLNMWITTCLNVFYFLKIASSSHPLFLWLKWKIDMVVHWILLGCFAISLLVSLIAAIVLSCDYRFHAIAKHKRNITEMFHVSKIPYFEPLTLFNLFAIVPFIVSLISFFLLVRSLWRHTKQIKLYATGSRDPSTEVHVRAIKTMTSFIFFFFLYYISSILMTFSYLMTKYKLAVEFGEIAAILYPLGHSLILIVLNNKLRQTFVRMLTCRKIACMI
Chain of hT2R9 (Q9NYW1 whole entry): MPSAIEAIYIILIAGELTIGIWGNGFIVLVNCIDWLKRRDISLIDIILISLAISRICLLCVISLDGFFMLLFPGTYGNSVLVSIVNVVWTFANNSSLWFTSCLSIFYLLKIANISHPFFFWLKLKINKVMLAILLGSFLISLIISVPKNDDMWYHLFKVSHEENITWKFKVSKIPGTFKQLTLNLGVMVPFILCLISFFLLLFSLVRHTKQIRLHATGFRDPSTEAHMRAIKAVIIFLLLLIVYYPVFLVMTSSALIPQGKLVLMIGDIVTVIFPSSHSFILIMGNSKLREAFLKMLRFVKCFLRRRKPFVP
Chain of hT2R5 (Q9NYW4 whole entry): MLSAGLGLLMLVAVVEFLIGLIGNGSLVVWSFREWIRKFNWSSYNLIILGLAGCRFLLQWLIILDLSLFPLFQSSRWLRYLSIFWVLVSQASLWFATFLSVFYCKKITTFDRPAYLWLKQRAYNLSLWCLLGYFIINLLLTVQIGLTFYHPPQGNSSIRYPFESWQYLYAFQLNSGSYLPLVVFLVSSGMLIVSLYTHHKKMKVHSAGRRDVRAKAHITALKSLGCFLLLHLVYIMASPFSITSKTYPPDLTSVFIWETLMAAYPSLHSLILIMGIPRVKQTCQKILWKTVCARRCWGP
Chain of hT2R64 (P59538 whole entry): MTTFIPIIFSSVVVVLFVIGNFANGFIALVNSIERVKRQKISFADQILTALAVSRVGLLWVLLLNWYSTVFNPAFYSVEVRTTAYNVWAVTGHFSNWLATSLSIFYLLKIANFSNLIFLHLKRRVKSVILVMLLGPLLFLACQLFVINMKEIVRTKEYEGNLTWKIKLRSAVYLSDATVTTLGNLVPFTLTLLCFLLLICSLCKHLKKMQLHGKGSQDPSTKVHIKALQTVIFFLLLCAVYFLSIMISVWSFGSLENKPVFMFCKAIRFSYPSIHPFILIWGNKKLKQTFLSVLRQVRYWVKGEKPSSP
Chain of hT2R16 (Q9NYV7 whole entry): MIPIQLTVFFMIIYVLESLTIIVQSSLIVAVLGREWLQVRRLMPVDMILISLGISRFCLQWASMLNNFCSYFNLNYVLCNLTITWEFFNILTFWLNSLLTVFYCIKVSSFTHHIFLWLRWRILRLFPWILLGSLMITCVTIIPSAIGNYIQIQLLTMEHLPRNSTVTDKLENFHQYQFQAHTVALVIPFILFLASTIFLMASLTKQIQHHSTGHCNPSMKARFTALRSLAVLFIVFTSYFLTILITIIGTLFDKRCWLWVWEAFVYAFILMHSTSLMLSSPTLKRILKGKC
Chain of hT2R71 (P59536 whole entry): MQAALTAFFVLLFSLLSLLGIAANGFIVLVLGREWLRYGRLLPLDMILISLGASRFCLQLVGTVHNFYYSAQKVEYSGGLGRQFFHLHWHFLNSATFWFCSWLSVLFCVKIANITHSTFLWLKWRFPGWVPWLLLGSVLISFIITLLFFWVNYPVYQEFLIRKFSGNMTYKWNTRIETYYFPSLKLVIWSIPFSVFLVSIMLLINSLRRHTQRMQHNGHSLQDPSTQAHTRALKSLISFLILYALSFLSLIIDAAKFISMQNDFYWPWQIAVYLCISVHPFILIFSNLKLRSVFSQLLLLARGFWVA
Chain of hT2R61 (P59537 whole entry): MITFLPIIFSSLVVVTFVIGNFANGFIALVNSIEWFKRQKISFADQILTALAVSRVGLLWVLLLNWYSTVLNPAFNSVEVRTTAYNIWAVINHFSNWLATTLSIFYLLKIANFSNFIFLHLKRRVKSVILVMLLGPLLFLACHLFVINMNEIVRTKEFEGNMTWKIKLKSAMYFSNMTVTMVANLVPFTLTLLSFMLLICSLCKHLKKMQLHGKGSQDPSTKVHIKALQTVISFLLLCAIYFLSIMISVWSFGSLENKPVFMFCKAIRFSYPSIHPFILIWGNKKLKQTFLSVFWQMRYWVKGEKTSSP
Chain of hT2R14 (Q9NYV8 whole entry): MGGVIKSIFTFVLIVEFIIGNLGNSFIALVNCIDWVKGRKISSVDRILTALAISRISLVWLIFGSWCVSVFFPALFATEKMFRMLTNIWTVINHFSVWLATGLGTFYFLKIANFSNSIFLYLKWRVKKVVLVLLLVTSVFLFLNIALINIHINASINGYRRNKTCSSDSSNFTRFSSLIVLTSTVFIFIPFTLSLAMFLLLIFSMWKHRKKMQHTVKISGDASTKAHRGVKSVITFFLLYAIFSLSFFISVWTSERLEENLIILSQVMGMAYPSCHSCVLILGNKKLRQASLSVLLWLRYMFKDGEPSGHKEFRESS
Chain of hT2R7 (Q9NYW3 whole entry): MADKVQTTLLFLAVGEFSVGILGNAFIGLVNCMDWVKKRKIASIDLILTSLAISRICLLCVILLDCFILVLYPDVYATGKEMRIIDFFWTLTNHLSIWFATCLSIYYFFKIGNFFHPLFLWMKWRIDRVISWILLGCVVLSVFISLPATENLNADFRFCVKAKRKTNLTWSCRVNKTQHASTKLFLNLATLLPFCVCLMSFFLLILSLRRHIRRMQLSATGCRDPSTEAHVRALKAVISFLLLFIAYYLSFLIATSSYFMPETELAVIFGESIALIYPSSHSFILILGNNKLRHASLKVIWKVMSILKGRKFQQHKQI
Chain of hT2R51 (P59533 whole entry): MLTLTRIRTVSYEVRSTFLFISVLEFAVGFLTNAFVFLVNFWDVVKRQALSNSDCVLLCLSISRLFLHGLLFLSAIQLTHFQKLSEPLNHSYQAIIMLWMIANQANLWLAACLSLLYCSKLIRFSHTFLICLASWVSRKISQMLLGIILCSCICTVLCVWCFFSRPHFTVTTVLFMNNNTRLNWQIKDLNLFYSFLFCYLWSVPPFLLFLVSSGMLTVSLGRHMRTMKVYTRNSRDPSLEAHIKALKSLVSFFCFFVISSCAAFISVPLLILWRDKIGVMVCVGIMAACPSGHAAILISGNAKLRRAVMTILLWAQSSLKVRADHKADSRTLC
Chain of hT2R10 (Q9NYW0 whole entry): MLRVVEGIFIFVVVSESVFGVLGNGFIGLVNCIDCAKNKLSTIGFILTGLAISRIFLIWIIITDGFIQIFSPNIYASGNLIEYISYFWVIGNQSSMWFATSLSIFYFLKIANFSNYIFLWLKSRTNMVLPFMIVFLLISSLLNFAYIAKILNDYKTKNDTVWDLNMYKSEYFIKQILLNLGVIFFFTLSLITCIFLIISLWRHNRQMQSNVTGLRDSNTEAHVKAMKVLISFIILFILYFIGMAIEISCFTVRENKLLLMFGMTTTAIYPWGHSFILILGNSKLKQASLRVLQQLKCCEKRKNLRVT
Chain of hT2R75 (P59540 whole entry): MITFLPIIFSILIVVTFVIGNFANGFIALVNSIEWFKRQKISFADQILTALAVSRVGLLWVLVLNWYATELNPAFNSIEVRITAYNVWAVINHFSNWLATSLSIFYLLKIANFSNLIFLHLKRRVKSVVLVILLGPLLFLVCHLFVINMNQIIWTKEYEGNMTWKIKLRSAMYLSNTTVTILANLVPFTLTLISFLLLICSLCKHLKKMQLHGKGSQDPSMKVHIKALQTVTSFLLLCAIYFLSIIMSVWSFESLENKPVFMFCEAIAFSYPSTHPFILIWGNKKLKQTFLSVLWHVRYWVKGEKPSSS

Take `COc1ccc(CN(Cc2ccccc2C)S(=O)(=O)c2ccc(C(=O)O)cc2)cc1` [Example 5-64, 4-(N-(4-methoxybenzyl)-N-(2-methylbenzyl)sulfamoyl)benzoic acid]: the inhibition at 25 µM on hT2R3, on hT2R5, at hT2R8, on hT2R9 and on hT2R64 was 20 to 40% in each case. Further, the “screening result against bitter receptor 44” value in the assay with hT2R44 is given as “+ (20% to 40% inhibition = +)”. The “screening result against bitter receptor 63” value in the assay with hT2R63 was “+ (20% to 40% inhibition = +)”. Further, the “screening result against bitter receptor 54” value in the assay with hT2R54 is reported as “+ (20% to 40% inhibition = +)”.

`COc1ccc(CN(Cc2ccc(C)cc2)S(=O)(=O)c2ccc(C(=O)O)cc2)cc1` [Example 5-66, 4-(N-(4-methoxybenzyl)-N-(4-methylbenzyl)sulfamoyl)benzoic acid]: the inhibition at 25 µM at hT2R3, on hT2R8 and at hT2R9 was 20 to 40% each time. In addition, the “screening result against bitter receptor 44” value with hT2R44 is “+ (20% to 40% inhibition = +)”.

As to `Cc1ccc(CN(Cc2ccccc2)S(=O)(=O)c2ccc(C(=O)O)cc2)cc1` [Example 5-70, 4-(N-benzyl-N-(4-methylbenzyl)sulfamoyl)benzoic acid], the inhibition at 25 µM was 40 to 60% on hT2R3; 20 to 40% on hT2R7; 40 to 60% on hT2R5; 40 to 60% at hT2R71; 40 to 60% at hT2R51; 60 to 80% on hT2R14. The inhibition at 25 µM lay in the range of 20 to 40% on hT2R8; 40 to 60% on hT2R16; 20 to 40% at hT2R75; 40 to 60% at hT2R10; 40 to 60% on hT2R61; 20 to 40% at hT2R64. The “screening result against bitter receptor 44” value in the assay on hT2R44 was “+ (20% to 40% inhibition = +)”. Besides, the “screening result against bitter receptor 67” value in the assay on hT2R67 is listed as “+ (20% to 40% inhibition = +)”. Moreover, the “screening result against bitter receptor 63” value with hT2R63 is “++++ (80% or greater inhibition = ++++)”. For the same molecule, in the assay on hT2R65, the “screening result against bitter receptor 65” value is recorded as “++ (40% to 60% inhibition = ++)”. The “screening result against bitter receptor 55” value with hT2R55 is given as “+++ (60% to 80% inhibition = +++)”. Moreover, in the assay on hT2R54, the “screening result against bitter receptor 54” value was “++ (40% to 60% inhibition = ++)”.
